Assay results from paper PMC5063977 (The Journal of Biological Chemistry, 2016).

Experiments:
[1] = test system: untransfected HEK-293 cells; assay: forskolin-stimulated cAMP accumulation, untransfected HEK-293 cells; format: cell-based, human
[2] = test system: RAMP-CLR complexes (RAMP1, RAMP2, RAMP3); assay: (Ca^2+)i mobilization with inhibitor pretreatment, HEK-293 cells, all RAMP-CLR complexes; format: cell-based, human; conditions: 100 nM YM-254890, 30 min pretreatment
Experimental: FIGURE 8. CLR in combination with each RAMP generates receptors that mobilize (Ca^2+)i release when expressed in HEK-293 cells. (Ca^2+)i mobilization was determined from HEK-293 cells transiently transfected with CLR and RAMP1 (n = 5) (A), RAMP2 (n = 5) (B), and RAMP3 (n = 5) (C). […] Data are expressed as percentage of the maximal (Ca^2+)i release as determined using 10 μM ionomycin. To determine the contribution made by different G proteins to the (Ca^2+)i response, cells were preincubated with either PTX (to inhibit Gαi) or YM-254890 (a selective Gαq inhibitor). All values are means ± S.E. of n individual data sets.
HEK-293 cells, provided by Dr. Jügen Müller (University of Aston), were cultured in DMEM supplemented with 10% heat-inactivated FBS and kept at 37 °C in a humidified 95% air, 5% CO2 incubator. HEK-293S cells (a gift from AstraZeneca) were cultured in DMEM supplemented with 8% heat-inactivated FBS and kept at 37 °C in a humidified 95% air, 5% CO2 incubator. HEK-293 cells were transfected with FuGENE 6 (Roche Applied Science) in accordance with the manufacturer's instructions using a 1:3 (w:v) DNA:FuGENE ratio and a 1:1 ratio of RAMP to CLR. HEK-293S cells were seeded into 96-well poly-D-lysine-coated plates at a density of 15,000 cells/well (determined using a Countess^TM cell counter, Invitrogen) 1 day prior to transfection. HEK-293S cells were transiently transfected as described previously ([38]) using a 1:1 ratio of RAMP to CLR. The transfected cell lines were grown for 24–48 h prior to assaying.
Transfected HEK-293 cells were grown to confluence in black, clear bottomed, 96-well plates. […] Ligands were added robotically using a Mithras LB 940 multimode microplate reader in the range of 10 pM to 1 μM, and fluorescence was determined immediately post-injection with an excitation wavelength set to 485 nm and an emission wavelength set to 535 nm. […] Peak magnitude was calculated using five-point smoothing followed by correction against background fluorescence. […]

Row | Compound | overall level of cAMP accumulation, forskolin stimulation ([1]; untransfected HEK-293, PTX treated) | overall level of cAMP accumulation, forskolin stimulation ([1]; untransfected HEK-293, untreated (no PTX)) | effect of YM-254890 on (Ca^2+)i mobilization by AM and AM2 ([2]; HEK-293, all RAMP-CLR complexes) | effect of YM-254890 on response to CGRP ([2]; HEK-293, all three RAMP-CLR complexes)
1 | C=C[C@@]1(C)CC(=O)[C@]2(O)[C@@]3(C)[C@@H](O)CCC(C)(C)[C@@H]3[C@H](O)[C@H](OC(C)=O)[C@@]2(C)O1 [forskolin, Forskolin] | 16.45 ± 2.4 pmol cell^−1 | 16.57 ± 2.5 pmol cell^−1 | – | –
2 | YM-254890 | – | – | abolish all (Ca^2+)i mobilization | considerably attenuated
